Source: article PMC5622025, “Synthesis and biological evaluation of tricyclic matrinic derivatives as a class of novel anti-HCV agents” (Chemistry Central Journal, 2017)
Where two headings read alike, the source gives them in different places.

Tests used:
HCV [1] = system: HCV; set-up: method as in PMID 23516533, PMID 20593456; settings: earlier studies; cited from earlier work
HCV [2] = test: Anti-HCV effect in vitro, intracellular HCV RNA by real-time RT-PCR in infected Huh7.5 cells; assay type: cell-based, hepatitis C virus; settings: for EC50: HCV-infected Huh7.5 cells, 72 h, real-time RT-PCR, read-out: EC50 (concentration required to inhibit HCV growth by 50%)
Protocol: (§1) All the target compounds were evaluated for their anti-HCV activities (EC50) and cytotoxicities (CC50) in human Huh7.5 cells using specific real-time RT-PCR assay, as described earlier. As an important indicator, the selectivity index (SI) was calculated as a ratio of CC50 to EC50. Anti-HCV ability of a given compound was estimated by combining its EC50 with SI values.
(§2) Human liver cell line Huh7.5 cells (kindly provided by Vertex Pharmaceuticals, Inc., Boston, MA) were cultured in Dulbecco’s modified eagle medium (DMEM) supplemented with 10% inactivated fetal bovine serum and 1% penicillin–streptomycin (invitrogen). Cells were digested with 0.05% trypsin-ethylene diamine tetraacetic acid (EDTA) and split twice a week.
Huh7.5 cells were seeded into 96-well or 6-well plates (Costar) at a density of 3 × 10^4 cells cm^−2. After 24 h incubation, the cells were infected with HCV viral stock (45 IU cell^−1) and simultaneously treated with the test compounds at various concentrations or solvent as control. The culture medium was removed after 72 h inoculation, the intracellular total RNA (in 96-well plates) was extracted with RNeasy Mini Kit (Qiagen), and total intracellular proteins (in 6-well plates) were extracted with Cyto-Buster Protein Extraction Reagent added with 1 mM protease inhibitor cocktail. The intracellular HCV RNA was quantified with a real time one-step reverse-transcription polymerase chain reaction (RT-PCR).

[3] = Cytotoxicity assay (MTT) in Huh7.5 cells; assay type: cell-based, human; settings: human; Huh7.5 cells, 72 h, MTT; read-out: CC50 (cytotoxic concentration required to inhibit Huh7.5 cell growth by 50%)
Protocol: as §1, §2
(§3) Huh7.5 cells were seeded into 96-well plates (Costar) at a density of 3 × 10^4 cells cm^−2. After 24 h incubation, fresh culture medium containing test compounds at various concentrations were added. 72 h later, cytotoxicity was evaluated with 3-(4,5-dimethylthiazol-2-yl)-2,5-diphenyltetrazolium bromide (MTT).

[4] = PK study after single oral dosing; assay type: in vivo, SD rats; settings: rats, single oral dosing of 25 mg kg^−1, n = 3
Kunming mice = test: Acute toxicity test, single oral dosing, 7 days monitoring; assay type: in vivo
Protocol: Each compound was given orally in a single-dosing experiment at 250, 500, 750 or 1000 mg kg^−1, respectively. The mice were closely monitored for 7 days.
Female Kunming mice with weight of 20.0 ± 1.0 g were fed with regular rodent chow and housed in an air conditioned room. The mice were randomly divided into different groups with six mice each. Each compound was given orally in a single-dosing experiment at 0, 250, 500, 750 or 1000 mg kg^−1 (ddH2O as control), respectively. The mice were closely monitored for 7 days. Body weight as well as survival was monitored.

Huh7.5 cells = test: Cytotoxicity assay (MTT) in Huh7.5 cells; assay type: cell-based, human; settings: Huh7.5 cells, 72 h, MTT; read-out: CC50 (cytotoxic concentration required to inhibit Huh7.5 cell growth by 50%)
Protocol: as §1, §2, §3

Q: For COc1ccc(CN2C[C@@H]3CCCN4CCC[C@@H]([C@H]34)[C@H]2CCCC(=O)O)cc1 [compound 1, 12N-4-methoxylbenzyl matrinic acid], which “SI (anti-HCV)” value (HCV [1]) is on record?
A: over 22

Q: What about the EC50 (HCV [2]; Hepatitis C virus) of the same compound?
A: 43.8 ± 3.81 µM

Q: What about the “SI (ratio of CC50 to EC50)” value (HCV [2]; Huh7.5 cells) of the same compound?
A: > 22.8

Q: And the CC50 at 72 h [3]?
A: > 1000 µM

Q: With COc1ccc(CN2CC3CCCN4CCCC(C2CCCCO)C34)cc1.Cl.Cl (stereo not shown) [7a, 12N-(4-Methoxybenzyl)matrinol dihydrochloride] as the compound, how does the “AUC 0–t” value [4] read?
A: 1.55 µM·h

Q: And the “AUC 0–∞” value [4]?
A: 1.58 µM·h

Q: What about the Cmax [4] of the same compound?
A: 620 nM

Q: What about the MRT [4] of the same compound?
A: 3.55 h

Q: And the Tmax [4]?
A: 0.42 h

Q: What about the t1/2 [4] of the same compound?
A: 4.69 h

Q: And the LD50 (Kunming mice)?
A: 708 mg/kg

Q: What about the EC50 (HCV [2]) of the same compound?
A: 2.81 ± 0.82 µM

Q: What about the CC50 (Huh7.5 cells) of the same compound?
A: 383 ± 30.2 µM

Q: For Cc1ccc(CN2C[C@@H]3CCCN4CCC[C@@H]([C@H]34)[C@H]2CCCCO)cc1.Cl.Cl [7b, 12N-(4-Methylbenzyl)matrinol dihydrochloride], which “AUC 0–t” value [4] is on record?
A: 2.32 µM·h

Q: What about the “AUC 0–∞” value [4] of the same compound?
A: 2.36 µM·h

Q: What about the Cmax [4] of the same compound?
A: 790 nM

Q: And the MRT [4]?
A: 4.47 h

Q: And the Tmax [4]?
A: 1.00 h

Q: What about the t1/2 [4] of the same compound?
A: 3.39 h

Q: And the LD50 (Kunming mice)?
A: 392 mg/kg

Q: What about the EC50 (HCV [2]) of the same compound?
A: < 2.06 µM

Q: And the CC50 (Huh7.5 cells)?
A: 252 ± 3.04 µM
